In patent US20040002080A1, “Primers for use in detecting beta-lactamases” (priority 2001, published 2004):
In brackets after ≈: the same amount, converted by molar mass. Read-outs that look alike come from different tables or passages of the source.

Columns and labels:
[1] = test system: S. enterica serotype typhimurium isolate; assay: Antibiotic susceptibility testing (microdilution MIC, VITEK, NCCLS disk diffusion); assay type: cell-based, Salmonella enterica serotype Typhimurium
[2] = molecular target: T1, beta-lactamase band of isoelectric point 9.1 (AmpC enzyme) of K. pneumoniae 249 (Klebsiella pneumoniae, UniProt Q48434); assay: Isoelectric focusing, cefotaxime hydrolysis and inhibitor determinations in polyacrylamide gels, sonic extracts; assay type: biochemical; settings: sonic extracts of K. pneumoniae 249, polyacrylamide gel; for inhibition of the band of isoelectric point 9.1: inhibitor 1000 mM
T1 construct: performed using sonic extracts of K. pneumoniae 249; endogenous in cells; host or cells: Klebsiella pneumoniae strain 249 (clinical urine isolate), sonic extract
Procedure: The test was performed using an innoculum of approximately 5×10^5 colony forming units per square milliliter (cfu/mL^2).
The cefoxitin, ceftriaxone/clavulanate and ceftazidime/clavulanate MICs indicated two possible mechanisms of resistance, the expression of a plasmid-mediated ampC gene and/or a porin mutation. […] Three beta-lactamases were identified with isoelectric points of 5.4, 7.6, and 9.1. The band that focused at isoelectric point 9.1 hydrolyzed cefotaxime and was inhibited by cloxacillin (1000 mM), but not clavulanate (1000 mM). These findings indicated it was an AmpC enzyme.

K. pneumoniae strain 249 = assay: Overnight microdilution susceptibility test (MicroScan panels, NCCLS criteria); assay type: cell-based; settings: Klebsiella pneumoniae, K. pneumoniae 249, combinations as drug/clavulanate, read-out: Minimum Inhibitory Concentrations (MICs)
Procedure: Susceptibility tests were performed on K. pneumoniae 249 by an overnight microdilution method with investigational dehydrated panels provided by Dade Behring MicroScan (Sacramento, Calif.) according to the manufacturer's recommendations and interpreted according to National Committee for Clinical Laboratory Standards (NCCLS) criteria and by NCCLS disc diffusion (National Committee for Clinical Laboratory Standards (NCCLS), “Methods for Dilution Antimicrobial Susceptibility Tests for Bacteria that Grow Aerobically: Approved Standard M7-A4,” Villanova, Pa. (1997); and Hanson et al., J. Antimicrob. Chemother., 44(3):377-380 (September 1999)). The test was performed using an innoculum of approximately 5×10^5 colony forming units per square milliliter (cfu/mL^2). Isoelectric focusing (IEF), cefotaxime hydrolysis and inhibitor determinations in polyacrylamide gels were performed using sonic extracts of K. pneumoniae 249 (Thomson et al., Antimicrob. Agents Chemother., 35:1001-1003 (1991)).

[3] = test system: S. enterica serotype typhimurium isolate; assay: Phenotypic inhibitor-based ESBL tests (double disk potentiation with clavulanate); assay type: cell-based, Salmonella enterica serotype Typhimurium; settings: for potentiation by clavulanate (ESBL tests positive): with clavulanate
Source text: Susceptibility testing and β-lactamase investigations. Antibiotic susceptibilities and resistance phenotypes were investigated by microdilution MIC methodology, double disk potentiation, VITEK (card GNS-424, bioMérieux, Inc. St. Louis, Mo.), NCCLS disk diffusion, and the three dimensional test (Thomson et al., Antimicrob. Agents Chemother., 35(5):1001-1003 (May 1991); and Thomson et al., Antimicrob. Agents Chemother., 36(9):1877-1882 (September 1992)).

[4] = test system: beta-lactamase pI>9.0 (AmpC); assay: Isoelectric focusing with general inhibitor characteristics, crude beta-lactamase preparations; assay type: biochemical, Salmonella enterica serotype Typhimurium; settings: crude preparation
Procedure: (§1) Crude beta-lactamase preparations derived from sonicated bacterial cultures of the S. typhimurium isolate and strains producing reference beta-lactamases were assessed for beta-lactamase pls and general inhibitor characteristics by isoelectric focusing (Thomson et al., Antimicrob. Agents Chemother., 35(5):1001-1003 (May 1991).

[5] = test system: beta-lactamase pI 8.2 (SHV-9); assay: as above; assay type: biochemical, Salmonella enterica serotype Typhimurium; settings: crude preparation
Procedure: as §1

[6] = molecular target: T2, beta-lactamase pI 7.4 (OXA-1 or OXA-30) (Escherichia coli, UniProt P13661); assay type: biochemical, Salmonella enterica serotype Typhimurium; settings: isoelectric focusing, crude preparation
T2 construct: Crude beta-lactamase preparations derived from sonicated bacterial cultures of the S. typhimurium isolate; endogenous in cells; host or cells: Salmonella enterica serotype Typhimurium clinical stool isolate, sonicated culture
T2 sequence (P13661 26-276): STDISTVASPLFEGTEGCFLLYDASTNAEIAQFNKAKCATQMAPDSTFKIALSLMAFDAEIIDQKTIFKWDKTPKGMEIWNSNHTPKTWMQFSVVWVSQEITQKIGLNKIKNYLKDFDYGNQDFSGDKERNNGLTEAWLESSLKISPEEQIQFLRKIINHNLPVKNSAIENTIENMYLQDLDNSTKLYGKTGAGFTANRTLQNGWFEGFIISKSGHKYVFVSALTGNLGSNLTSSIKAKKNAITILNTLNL

T1 sequence (Q48434 21-381): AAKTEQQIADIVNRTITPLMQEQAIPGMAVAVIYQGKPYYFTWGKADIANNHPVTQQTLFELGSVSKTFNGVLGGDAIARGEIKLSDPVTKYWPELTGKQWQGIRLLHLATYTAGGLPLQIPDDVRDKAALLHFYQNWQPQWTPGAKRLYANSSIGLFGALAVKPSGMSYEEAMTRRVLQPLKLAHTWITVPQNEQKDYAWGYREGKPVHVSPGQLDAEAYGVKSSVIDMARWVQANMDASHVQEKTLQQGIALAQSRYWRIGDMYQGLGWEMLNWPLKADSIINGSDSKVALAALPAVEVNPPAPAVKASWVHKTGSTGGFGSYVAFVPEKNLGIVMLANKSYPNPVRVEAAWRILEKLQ

How did the “susceptibility category (susceptible / intermediate / resistant)” value [1] turn out when `CO/N=C(\C(=O)N[C@@H]1C(=O)N2C(C(=O)O)=C(COC(C)=O)CS[C@H]12)c1csc(N)n1` [cefotaxime] was run?
Its value is “resistance”.

And the “cefotaxime hydrolysis by the band of isoelectric point 9.1” value [2]?
Its value is “hydrolyzed”.

How did the “susceptibility category (susceptible / intermediate / resistant)” value [1] turn out when Cotrimoxazole was run?
The value was “resistant”.

What about the MIC ([1]; Table 2) of the same molecule?
The MIC was greater than 320 µg/mL.

`CO/N=C(\C(=O)N[C@@H]1C(=O)N2C(C(=O)[O-])=C(C[N+]3(C)CCCC3)CS[C@H]12)c1csc(N)n1` [cefepime] was tested. Which MIC (K. pneumoniae strain 249) did it give?
Its MIC is no more than 4 µg/mL.

And the “susceptibility category (susceptible / intermediate / resistant)” value [1]?
Its value is “intermediate”.

What about the “potentiation by clavulanate (ESBL tests positive)” value (“potentiation by clavulanate” for short) [3] of the same molecule?
Its value is “potentiation”.

`C[C@@H](O)[C@H]1C(=O)N2C(C(=O)O)=C([C@H]3CCCO3)S[C@H]12` [Faropenem] was tested. Which MIC ([1]; Salmonella enterica, read-out: MIC) did it give?
The MIC was 2 µg/mL (≈ 7.01 µM).

And the MIC ([1]; Table 2)?
Its MIC is 2 µg/mL (≈ 7.01 µM).

With `CC=CC1=C(C(=O)O)N2C(=O)[C@@H](NC(=O)[C@H](N)c3ccc(O)cc3)[C@H]2SC1` [Cefprozil] as the molecule, how does the MIC ([1]; Table 2) read?
Its MIC is greater than 128 µg/mL.

For `C=CC1=C(C(=O)O)N2C(=O)[C@@H](NC(=O)/C(=N\OCC(=O)O)c3csc(N)n3)[C@H]2SC1` [Cefixime], which MIC ([1]; Table 2) is on record?
Its MIC is greater than 128 µg/mL.

`O=C(N[C@H](CO)[C@H](O)c1ccc([N+](=O)[O-])cc1)C(Cl)Cl` [Chloramphenicol] was tested. Which “susceptibility category (susceptible / intermediate / resistant)” value [1] did it give?
The value was “resistant”.

What about the MIC ([1]; Table 2) of the same molecule?
Its MIC is greater than 256 µg/mL.

How did the “susceptibility category (susceptible / intermediate / resistant)” value [1] turn out when `O=C(O)c1cn(C2CC2)c2cc(N3CCNCC3)c(F)cc2c1=O` [Ciprofloxacin] was run?
The value was “susceptible”.

Which results are given for `O=C(O)[C@H]1/C(=C/CO)O[C@@H]2CC(=O)N21` [clavulanate]?
inhibition of beta-lactamase pI>9.0 [4]: not; inhibition of beta-lactamase pI 8.2 [5]: inhibited; inhibition of the band of isoelectric point 9.1 [2]: not; inhibition of beta-lactamase pI 7.4 [6]: inhibited

Which MIC ([1]; Table 2) does the source give for Gentamicin here?
The MIC was greater than 16 µg/mL.

`CC1(C)S[C@@H]2[C@H](NC(=O)[C@H](C(=O)O)c3ccsc3)C(=O)N2[C@H]1C(=O)O` [ticarcillin] was tested. Which MIC (K. pneumoniae strain 249) did it give?
The MIC was greater than 64 µg/mL.

For `COCC1=C(C(=O)O)N2C(=O)[C@@H](NC(=O)/C(=N\OC)c3csc(N)n3)[C@H]2SC1` [cefpodoxime], which MIC (K. pneumoniae strain 249) is on record?
Its MIC is greater than 4 µg/mL.

`CC(C)(O/N=C(\C(=O)N[C@@H]1C(=O)N2C(C(=O)[O-])=C(C[n+]3ccccc3)CS[C@H]12)c1csc(N)n1)C(=O)O` [Ceftazidime] was tested. Which MIC (K. pneumoniae strain 249) did it give?
The MIC was 16 µg/mL.

And the “susceptibility category (susceptible / intermediate / resistant)” value [1]?
The value was “resistance”.

What about the MIC ([1]; Table 2) of the same molecule?
Its MIC is greater than 32 µg/mL.

How did the “susceptibility category (susceptible / intermediate / resistant)” value [1] turn out when `C[C@H]1[C@H](NC(=O)/C(=N\OC(C)(C)C(=O)O)c2csc(N)n2)C(=O)N1S(=O)(=O)O` [aztreonam] was run?
Its value is “resistance”.

And the “reversal of resistance by the addition of clavulanate” value ([3]; addition of clavulanate)?
Its value is “partially reversible”.

What about the “potentiation by clavulanate” value [3] of the same molecule?
Its value is “potentiation”.

With `CO/N=C(\C(=O)N[C@@H]1C(=O)N2C(C(=O)O)=C(COC(N)=O)CS[C@H]12)c1ccco1` [Cefuroxime] as the molecule, how does the MIC ([1]; Table 2) read?
The MIC was greater than 256 µg/mL.

Which results are given for `Cc1onc(-c2ccccc2Cl)c1C(=O)N[C@@H]1C(=O)N2[C@@H]1SC(C)(C)[C@@H]2C(=O)O` [cloxacillin]?
inhibition of beta-lactamase pI>9.0 [4]: inhibited; inhibition of the band of isoelectric point 9.1 [2]: inhibited; inhibition of beta-lactamase pI 7.4 [6]: not

How did the MIC (K. pneumoniae strain 249) turn out when `CCN1CCN(C(=O)N[C@@H](C(=O)N[C@@H]2C(=O)N3[C@@H]2SC(C)(C)[C@@H]3C(=O)O)c2ccccc2)C(=O)C1=O` [piperacillin] was run?
The MIC was greater than 64 µg/mL.

With `CC(=O)OCC1=C(C(=O)O)N2C(=O)[C@@H](NC(=O)Cc3cccs3)[C@H]2SC1` [Cephalothin] as the molecule, how does the MIC (K. pneumoniae strain 249) read?
Its MIC is greater than 16 µg/mL.

And the MIC ([1]; Table 2)?
The MIC was greater than 32 µg/mL.

For `CO[C@@]1(NC(=O)Cc2cccs2)C(=O)N2C(C(=O)O)=C(COC(N)=O)CS[C@@H]21` [cefoxitin], which MIC (K. pneumoniae strain 249) is on record?
The MIC was greater than 32 µg/mL.

And the “susceptibility category (susceptible / intermediate / resistant)” value [1]?
The value was “resistance”.

Which MIC (K. pneumoniae strain 249) does the source give for `C[C@@H](O)[C@H]1C(=O)N2C(C(=O)O)=C(S[C@@H]3CN[C@H](C(=O)N(C)C)C3)[C@H](C)[C@H]12` [Meropenem] here?
The MIC was no more than 0.5 µg/mL.

What about the “susceptibility category (susceptible / intermediate / resistant)” value [1] of the same molecule?
The value was “susceptible”.

And the MIC ([1]; Table 2)?
Its MIC is “less than 2”.

With `NCC[C@H](O)C(=O)N[C@@H]1C[C@H](N)[C@@H](O[C@H]2O[C@H](CN)[C@@H](O)[C@H](O)[C@H]2O)[C@H](O)[C@H]1O[C@H]1O[C@H](CO)[C@@H](O)[C@H](N)[C@H]1O` [Amikacin] as the molecule, how does the MIC ([1]; Table 2) read?
The MIC was greater than 64 µg/mL.

Which MIC ([1]; Table 2) does the source give for `C[C@H]1COc2c(N3CCN(C)CC3)c(F)cc3c(=O)c(C(=O)O)cn1c23` [Levofloxacin] here?
Its MIC is 0.5 µg/mL (≈ 1.38 µM).

How did the MIC ([1]; Table 2) turn out when `NC[C@H]1O[C@H](O[C@H]2[C@H](O)[C@@H](O[C@H]3O[C@H](CO)[C@@H](O)[C@H](N)[C@H]3O)[C@H](N)C[C@@H]2N)[C@H](N)C[C@@H]1O` [Tobramycin] was run?
Its MIC is greater than 16 µg/mL.

With `CC1(C)S[C@@H]2[C@H](NC(=O)[C@H](N)c3ccccc3)C(=O)N2[C@H]1C(=O)O` [Ampicillin] as the molecule, how does the MIC (K. pneumoniae strain 249) read?
The MIC was greater than 16 µg/mL.

What about the MIC ([1]; Table 2) of the same molecule?
The MIC was greater than 256 µg/mL.

`CO/N=C(\C(=O)N[C@@H]1C(=O)N2C(C(=O)O)=C(CSc3nc(=O)c(=O)[nH]n3C)CS[C@H]12)c1csc(N)n1` [Ceftriaxone] was tested. Which MIC (K. pneumoniae strain 249) did it give?
Its MIC is 16 µg/mL.

What about the MIC ([1]; Table 2) of the same molecule?
The MIC was greater than 128 µg/mL.

How did the “potentiation by clavulanate” value [3] turn out when `CO/N=C(\C(=O)N[C@@H]1C(=O)N2C(C(=O)[O-])=C(C[n+]3cccc4c3CCC4)CS[C@H]12)c1csc(N)n1` [cefpirome] was run?
The value was “potentiation”.

How did the MIC ([1]; Table 2) turn out when `C[C@@H](O)[C@H]1C(=O)N2C(C(=O)O)=C(SCCN=CN)C[C@H]12` [Imipenem] was run?
The MIC was 0.25 µg/mL (≈ 0.835 µM).
